According to ChEMBL document CHEMBL1201862, “PubChem BioAssay data set” (2004):
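Test compounds were applied to cells in 96-well plates for 48 hours at 5 doses. Abbreviation: GI50, concentration required for 50% inhibition of growth.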 Calls of active or inactive are those of the source. Rule as the data show it: active = GI50 up to about 1.1 µM and inactive = higher.

Legend:
Assay in all cases: NCI tumour cell line growth inhibition, 48 h
[1] = system: UACC-257
[2] = system: UO-31
[3] = system: DMS-114
[4] = system: CCRF-CEM
[5] = system: HCT-15
[6] = system: UACC-62
[7] = system: K562
[8] = system: SF-268
[9] = system: COLO 205
[10] = system: 786-0
[11] = system: SF-539
[12] = system: ACHN
[13] = system: KM12
[14] = system: OVCAR-3
[15] = system: KM-20L2
[16] = system: HOP-92
[17] = system: OVCAR-8
[18] = system: LOX IMVI
[19] = system: Malme-3M
[20] = system: NCI-H226
[21] = system: HOP-18
[22] = system: SK-MEL-28
[23] = system: NCI-H23
[24] = system: NCI-H460
[25] = system: HCT-116
[26] = system: HOP-62
[27] = system: SW-620
[28] = system: TK-10
[29] = system: M14
[30] = system: IGROV-1
[31] = system: RXF 393
[32] = system: LXFL 529
[33] = system: M19-MEL
[34] = system: NCI-H522
[35] = system: SN12C
[36] = system: SR
[37] = system: OVCAR-4
[38] = system: SK-OV-3
[39] = system: HT-29
[40] = system: A498
[41] = system: U-251
[42] = system: EKVX
[43] = system: RPMI-8226
[44] = system: MOLT-4
[45] = system: SNB-19
[46] = system: SK-MEL-2
[47] = system: SNB-78
[48] = system: HCC 2998
[49] = system: A549
[50] = system: DLD-1
[51] = system: OVCAR-5
[52] = system: SF-295
[53] = system: HL-60
[54] = system: CAKI-1
[55] = system: DMS-273
[56] = system: SK-MEL-5
[57] = system: SNB-75

## CCc1cccc(CC)c1NC(=O)C(=O)Cc1nc2ccccc2o1
[1]
  GI50: > 100 µM (inactive)
[2]
  GI50: > 100 µM (inactive)
[3]
  GI50: > 100 µM (inactive)
[4]
  GI50: > 100 µM (inactive)
[5]
  GI50: > 100 µM
[6]
  GI50: > 100 µM (inactive)
[7]
  GI50: > 100 µM (inactive)
[8]
  GI50: > 100 µM (inactive)
[9]
  GI50: > 100 µM (inactive)
[10]
  GI50: > 100 µM (inactive)
[11]
  GI50: > 100 µM (inactive)
[12]
  GI50: > 100 µM (inactive)
[13]
  GI50: > 100 µM (inactive)
[14]
  GI50: > 100 µM (inactive)
[15]
  GI50: > 100 µM (inactive)
[16]
  GI50: > 100 µM (inactive)
[17]
  GI50: > 100 µM (inactive)
[18]
  GI50: > 100 µM (inactive)
[19]
  GI50: > 100 µM (inactive)
[20]
  GI50: > 100 µM (inactive)
[21]
  GI50: > 100 µM (inactive)
[22]
  GI50: > 100 µM (inactive)
[23]
  GI50: > 100 µM (inactive)
[24]
  GI50: > 100 µM (inactive)
[25]
  GI50: > 100 µM (inactive)
[26]
  GI50: > 100 µM (inactive)
[27]
  GI50: > 100 µM (inactive)
[28]
  GI50: > 100 µM (inactive)
[29]
  GI50: > 100 µM (inactive)
[30]
  GI50: > 100 µM (inactive)
[31]
  GI50: > 100 µM (inactive)
[32]
  GI50: > 100 µM (inactive)
[33]
  GI50: > 100 µM (inactive)
[34]
  GI50: > 100 µM (inactive)
[35]
  GI50: > 100 µM (inactive)
[36]
  GI50: > 100 µM (inactive)
[37]
  GI50: > 100 µM (inactive)
[38]
  GI50: > 100 µM (inactive)
[39]
  GI50: > 100 µM (inactive)
[40]
  GI50: > 100 µM (inactive)
[41]
  GI50: > 100 µM (inactive)
[42]
  GI50: > 100 µM (inactive)
[43]
  GI50: > 100 µM (inactive)
[44]
  GI50: > 100 µM (inactive)
[45]
  GI50: > 100 µM (inactive)
[46]
  GI50: > 100 µM (inactive)
[47]
  GI50: > 100 µM (inactive)
[48]
  GI50: > 100 µM (inactive)
[49]
  GI50: > 100 µM (inactive)
[50]
  GI50: > 100 µM (inactive)
[51]
  GI50: > 100 µM (inactive)
[52]
  GI50: > 100 µM (inactive)
[53]
  GI50: > 100 µM (inactive)
[54]
  GI50: > 100 µM (inactive)

## Cc1ccc(C(=O)NC(C)(C)C)cc1/N=N/N(C)C
[1]
  GI50: > 100 µM (inactive)
[2]
  GI50: > 100 µM (inactive)
[5]
  GI50: > 100 µM
[6]
  GI50: > 100 µM (inactive)
[8]
  GI50: 42 µM (inactive)
[10]
  GI50: > 100 µM (inactive)
[11]
  GI50: > 100 µM (inactive)
[12]
  GI50: > 100 µM (inactive)
[13]
  GI50: > 100 µM (inactive)
[14]
  GI50: 69.5 µM (inactive)
[55]
  GI50: > 100 µM (inactive)
[15]
  GI50: > 100 µM (inactive)
[16]
  GI50: > 100 µM (inactive)
[17]
  GI50: > 100 µM (inactive)
[18]
  GI50: > 100 µM (inactive)
[22]
  GI50: > 100 µM (inactive)
[23]
  GI50: > 100 µM (inactive)
[24]
  GI50: > 100 µM (inactive)
[25]
  GI50: > 100 µM (inactive)
[26]
  GI50: > 100 µM (inactive)
[27]
  GI50: > 100 µM (inactive)
[28]
  GI50: > 100 µM (inactive)
[29]
  GI50: > 100 µM (inactive)
[30]
  GI50: > 100 µM (inactive)
[32]
  GI50: > 100 µM (inactive)
[34]
  GI50: 50.5 µM (inactive)
[35]
  GI50: > 100 µM (inactive)
[37]
  GI50: > 100 µM (inactive)
[39]
  GI50: > 100 µM (inactive)
[41]
  GI50: > 100 µM (inactive)
[42]
  GI50: > 100 µM (inactive)
[45]
  GI50: 60.7 µM (inactive)
[46]
  GI50: > 100 µM (inactive)
[56]
  GI50: > 100 µM (inactive)
[47]
  GI50: > 100 µM (inactive)
[48]
  GI50: > 100 µM (inactive)
[49]
  GI50: > 100 µM (inactive)
[50]
  GI50: > 100 µM (inactive)
[52]
  GI50: > 100 µM (inactive)
[54]
  GI50: > 100 µM (inactive)

## CC1CN1c1c(C(=O)/C=C/c2ccccc2)c(-c2ccccc2)nn(C)c1=O (centres undefined)
[1]
  GI50: 18.1 µM (inactive)
[2]
  GI50: 15.5 µM (inactive)
[3]
  GI50: 23 µM (inactive)
[4]
  GI50: 13.4 µM (inactive)
[5]
  GI50: 14.1 µM
[6]
  GI50: 16.2 µM (inactive)
[7]
  GI50: 18.2 µM (inactive)
[8]
  GI50: 27.9 µM (inactive)
[9]
  GI50: 16.2 µM (inactive)
[10]
  GI50: 15.9 µM (inactive)
[11]
  GI50: 16.9 µM (inactive)
[12]
  GI50: 17.4 µM (inactive)
[13]
  GI50: 20.8 µM (inactive)
[14]
  GI50: 18.5 µM (inactive)
[55]
  GI50: 16.7 µM (inactive)
[57]
  GI50: 18.8 µM (inactive)
[15]
  GI50: 19.1 µM (inactive)
[16]
  GI50: 13.1 µM (inactive)
[17]
  GI50: 19.1 µM (inactive)
[18]
  GI50: 15.6 µM (inactive)
[19]
  GI50: 19.7 µM (inactive)
[20]
  GI50: 20.8 µM (inactive)
[21]
  GI50: 26.2 µM (inactive)
[22]
  GI50: 25.3 µM (inactive)
[23]
  GI50: 16.6 µM (inactive)
[24]
  GI50: 19.1 µM (inactive)
[25]
  GI50: 17.5 µM (inactive)
[26]
  GI50: 22 µM (inactive)
[27]
  GI50: 18.2 µM (inactive)
[28]
  GI50: 25.8 µM (inactive)
[29]
  GI50: 17.1 µM (inactive)
[30]
  GI50: 23.7 µM (inactive)
[31]
  GI50: 24.7 µM (inactive)
[32]
  GI50: 15.3 µM (inactive)
[33]
  GI50: 17.3 µM (inactive)
[34]
  GI50: 13.4 µM (inactive)
[35]
  GI50: 17.7 µM (inactive)
[37]
  GI50: 16.2 µM (inactive)
[38]
  GI50: 31.6 µM (inactive)
[39]
  GI50: 15.7 µM (inactive)
[40]
  GI50: 17.7 µM (inactive)
[41]
  GI50: 16.9 µM (inactive)
[42]
  GI50: 17.3 µM (inactive)
[44]
  GI50: 15.2 µM (inactive)
[45]
  GI50: 24.4 µM (inactive)
[46]
  GI50: 16.3 µM (inactive)
[56]
  GI50: 15.9 µM (inactive)
[47]
  GI50: 18.2 µM (inactive)
[48]
  GI50: 16.4 µM (inactive)
[49]
  GI50: 28.6 µM (inactive)
[50]
  GI50: 15.2 µM (inactive)
[51]
  GI50: 20.3 µM (inactive)
[52]
  GI50: 22.6 µM (inactive)
[53]
  GI50: 17.2 µM (inactive)
[54]
  GI50: 37.4 µM (inactive)
